The source of these data is patent US9056865B2, “Pyridine-2-derivatives as smoothened receptor modulators” (Pfizer Inc., priority 2010, dated 2015).

One data set concerns Gli-Luc/MEF cells. The experiment in a line: Gli-Luc/MEF assay. In kind it is cell-based, mouse. As to conditions: Mus musculus, MEF; Shh-stimulated luciferase, 48 hours. In a few lines:
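Mouse embryonic fibroblasts from Gli-Luc transgenic mice (luciferase under Gli response element) dosed with compounds (final […], 3-fold series), then stimulated with recombinant mouse Shh at final 2 μg/mL. After 48 h at 37 °C, luminescence read by Bright-Glo; IC50 from inhibition of Shh-induced signal.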

Data set [1] in a line: Assessment of brain penetration in rats. The data set is classed as in vivo. As to conditions: rat. Here is the method: Assessment of Brain Penetration of A-116 in Rats
An in vivo study in rats was conducted to assess the extent of brain penetration of A-116. In this study, approximately 10-week-old (250 grams body weight) Wistar rats were dosed once with 10 mg/kg of A-116 subcutaneously. Three rats per group were euthanized 1 hour, 4 hours, and 7 hours post dose. The plasma, the whole brain, and the cerebral spinal fluid (CSF) were collected to determine the tissue concentrations using HPLC-MS/MS. At 1 hour, 4 hours and 7 hours, the respective brain concentrations were 201±52 ng/g, 224±231 ng/g, and 28 ng/g of tissue. The total plasma concentrations were 2240±296 ng/mL, 2220±1780 ng/mL, and 287±75 ng/mL at 1 hour, 4 hours and 7 hours, respectively. To calculate the unbound plasma concentrations, the total plasma concentrations were multiplied by 0.067, a previously determined unbound fraction of rat plasma protein binding. The resulting unbound plasma concentrations were 150±20 ng/mL (1 hour), 149±119 ng/mL (4 hours), and 19.2±5.0 ng/mL (7 hours). The respective CSF concentrations were 64.4±12.0 ng/mL, 72.1±71.9 ng/mL, and 3.9±2.3 ng/mL at 1 hour, 4 hours, and 7 hours post dose. […] To determine the extent of brain penetration, a ratio of the CSF concentration to the unbound plasma concentration was calculated. At 1 hour, 4 hours, and 7 hours, the ratios were 0.43±0.03, 0.44±0.1, and 0.19±0.06, respectively.

A further data set has as its target P-glycoprotein (Homo sapiens (Human), UniProt P08183). The data set is described as follows: P-glycoprotein substrate status. In kind it is in vitro ADME.

Where two headings read alike, the source gives them in different places.

P-glycoprotein, sequence (P08183 whole entry): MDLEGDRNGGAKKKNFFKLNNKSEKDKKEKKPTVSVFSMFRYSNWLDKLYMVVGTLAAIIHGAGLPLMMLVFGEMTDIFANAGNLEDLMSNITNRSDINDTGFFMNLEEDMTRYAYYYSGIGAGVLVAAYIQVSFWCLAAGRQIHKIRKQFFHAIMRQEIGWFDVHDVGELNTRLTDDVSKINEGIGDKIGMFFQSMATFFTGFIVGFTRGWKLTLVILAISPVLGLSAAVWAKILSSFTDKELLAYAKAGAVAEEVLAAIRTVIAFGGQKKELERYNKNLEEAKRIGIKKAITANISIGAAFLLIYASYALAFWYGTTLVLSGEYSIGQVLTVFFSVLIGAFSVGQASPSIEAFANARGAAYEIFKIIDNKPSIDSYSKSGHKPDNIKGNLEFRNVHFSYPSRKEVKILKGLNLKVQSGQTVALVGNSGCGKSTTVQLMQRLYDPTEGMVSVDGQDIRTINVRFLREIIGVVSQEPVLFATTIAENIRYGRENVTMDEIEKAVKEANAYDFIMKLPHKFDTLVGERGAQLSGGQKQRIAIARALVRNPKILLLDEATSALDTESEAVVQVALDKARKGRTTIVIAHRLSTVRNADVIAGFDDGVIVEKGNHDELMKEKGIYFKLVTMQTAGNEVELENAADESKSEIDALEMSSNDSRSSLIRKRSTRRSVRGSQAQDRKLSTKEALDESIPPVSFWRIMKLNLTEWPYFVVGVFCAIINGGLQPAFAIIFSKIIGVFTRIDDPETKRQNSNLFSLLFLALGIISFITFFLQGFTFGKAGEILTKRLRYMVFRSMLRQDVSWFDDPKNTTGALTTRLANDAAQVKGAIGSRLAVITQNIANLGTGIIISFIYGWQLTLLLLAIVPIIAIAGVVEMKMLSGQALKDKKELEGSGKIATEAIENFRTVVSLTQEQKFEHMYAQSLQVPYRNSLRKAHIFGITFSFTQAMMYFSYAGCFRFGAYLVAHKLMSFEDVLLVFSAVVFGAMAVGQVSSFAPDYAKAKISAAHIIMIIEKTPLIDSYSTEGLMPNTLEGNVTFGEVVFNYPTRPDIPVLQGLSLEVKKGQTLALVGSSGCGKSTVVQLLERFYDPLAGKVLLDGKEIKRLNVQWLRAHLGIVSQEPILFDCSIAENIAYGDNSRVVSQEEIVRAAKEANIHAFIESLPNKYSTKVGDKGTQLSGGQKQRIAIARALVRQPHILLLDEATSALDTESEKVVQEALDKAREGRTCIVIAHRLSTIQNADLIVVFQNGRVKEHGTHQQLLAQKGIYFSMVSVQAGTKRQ

On to `Cc1cnc(-c2cc(N3CCN(C(=O)CCS(C)(=O)=O)CC3)ncc2Cl)c(C)c1` [Example A-116, 5′-chloro-3,5-dimethyl-2′-{4-[3-(methylsulfonyl)propanoyl]piperazin-1-yl}-2,4′-bipyridine], for which, in the data set with Gli-Luc/MEF cells, the IC50 came to 2.76 nM. For the same compound, the Kp at 1 h in data set [1] (Wistar, CSF / unbound plasma, subcutaneous, 10 mg/kg, 1 hour, read-out: ratio of the CSF concentration to the unbound plasma concentration) stood at 0.43 ± 0.03. Moreover, in data set [1] (Wistar, CSF / unbound plasma, subcutaneous, 10 mg/kg, 4 hours, read-out: ratio of the CSF concentration to the unbound plasma concentration), the Kp at 4 h stood at 0.44 ± 0.1. In addition, the Kp at 7 h in data set [1] (Wistar, CSF / unbound plasma, subcutaneous, 10 mg/kg, 7 hours, read-out: ratio of the CSF concentration to the unbound plasma concentration) was found to be 0.19 ± 0.06. For the same compound, the Kp in data set [1] (Wistar, CSF / unbound plasma, subcutaneous, 10 mg/kg, rats, within 4 hours post dose, read-out: unbound compound in the plasma able to cross the blood brain barrier) was roughly 0.4. In addition, the concentration at 1 h in data set [1] (Wistar, subcutaneous, 10 mg/kg, total plasma concentration multiplied by 0.067, 1 hour, read-out: unbound plasma concentration) is 150 ± 20 ng/mL; in data set [1] (CSF, sc, Wistar rats, 10 mg/kg subcutaneously, 1 hour, read-out: CSF concentration) it was 64.4 ± 12 ng/mL; in data set [1] (brain, sc, Wistar rats, 10 mg/kg subcutaneously, 1 hour, read-out: brain concentration) it was 201 ± 52 ng/g; in data set [1] (plasma, sc, Wistar rats, 10 mg/kg subcutaneously, 1 hour, read-out: total plasma concentration) it was 2240 ± 296 ng/mL. Moreover, the concentration at 4 h in data set [1] (Wistar, subcutaneous, 10 mg/kg, total plasma concentration multiplied by 0.067, 4 hours, read-out: unbound plasma concentration) was 149 ± 119 ng/mL; in data set [1] (CSF, sc, Wistar rats, 10 mg/kg subcutaneously, 4 hours, read-out: CSF concentration), 72.1 ± 71.9 ng/mL; in data set [1] (brain, sc, Wistar rats, 10 mg/kg subcutaneously, 4 hours, read-out: brain concentration) it was 224 ± 231 ng/g; in data set [1] (plasma, sc, Wistar rats, 10 mg/kg subcutaneously, 4 hours, read-out: total plasma concentration) it was 2220 ± 1780 ng/mL. The concentration at 7 h in data set [1] (Wistar, subcutaneous, 10 mg/kg, total plasma concentration multiplied by 0.067, 7 hours, read-out: unbound plasma concentration) came to 19.2 ± 5 ng/mL; in data set [1] (CSF, sc, Wistar rats, 10 mg/kg subcutaneously, 7 hours, read-out: CSF concentration), 3.9 ± 2.3 ng/mL; in data set [1] (brain, sc, Wistar rats, 10 mg/kg subcutaneously, 7 hours, read-out: brain concentration) it was 28 ng/g; in data set [1] (plasma, sc, Wistar rats, 10 mg/kg subcutaneously, 7 hours, read-out: total plasma concentration), 287 ± 75 ng/mL. In addition, at P-glycoprotein, the P-glycoprotein substrate entry was “not a P-glycoprotein substrate”.
